# Results as given in publication PMC12212627, “Machine Learning-Based Virtual Screening of Antibacterial Agents against Methicillin-Susceptible and Resistant Staphylococcus aureus” (Journal of Chemical Information and Modeling, 2024).
# Experiments:
# [1] = test system: clinical strain of MRSA n° 5749; test: Broth microdilution (CLSI): screening at 100 μM and MIC, MRSA clinical strain 5749; type: cell-based, Staphylococcus aureus; settings: for Percentage of growth inhibition MRSA (5749): at 100 uM, Table S4
# Description: (§1) E. coli (ATCC n° […]) – a TEM-1 β-lactamase producing strain, S. aureus (ATCC n° 29213) – herein referred to as MSSA, MRSA (ATCC n° 43300), and two clinical strains of MRSA (n° 5749 and 6154) were used in the biological assays. The antibacterial activity and minimal inhibitory concentration (MIC) of the screened compounds were evaluated with the broth microdilution method in 96-well microplates, according to the Clinical and Laboratory Standards Institute (CLSI) protocol. Initially, compounds were evaluated in a screening assay to identify promising hits. The compounds were dissolved in dimethyl sulfoxide (DMSO) and then diluted in Mueller Hinton broth (MHB; Oxoid, Thermo Scientific, U.K.) to a concentration of 200 μM. After the addition of 100 μL to each well, the same volume of bacterial suspension containing 10^5 CFU/mL was added to each of the previous solutions, resulting in a final compound concentration of 100 μM. A viability control (bacterial suspension only), inhibition controls (MHB containing five times the MIC of penicillin G for MSSA, vancomycin for MRSA strains, and streptomycin for E. coli), a sterility control (medium only), and a vehicle control (DMSO 2% v/v) were included in each assay microplate. After 24 h of incubation at 37 °C, the microplates were visually inspected for inhibition of bacterial growth, and the absorbance at 600 nm of each well was read using a microplate reader spectrophotometer (VersaMax, Molecular Devices, CA). The percentage of growth inhibition was calculated as the percentage of growth reduction compared with the vehicle control. Wells showing no visual bacterial growth (no turbidity) were considered hits. The MIC of the promising compounds in the initial screening were tested as previously described, with a serial dilution of each compound (100–1.56 μM). All conditions were tested in triplicate from at least three independent assays.
# MRSA (ATCC n° 43300) = test: Broth microdilution (CLSI): screening at 100 μM and MIC, MRSA reference strain; type: cell-based, Staphylococcus aureus; settings: for Percentage of growth inhibition MRSA (ATCC 43300): at 100 uM, Table S4
# Description: as §1
# [2] = test system: S. aureus (ATCC n° 29213), MSSA; test: Broth microdilution (CLSI): screening at 100 μM and MIC, MSSA; type: cell-based, Staphylococcus aureus; settings: for Percentage of growth inhibition MSSA (ATCC 29123): at 100 uM, Table S4
# Description: as §1
# [3] = Cytotoxicity, colorimetric MTT assay; type: cell-based; settings: African green monkey, Vero (ATCC CCL-81) cells, 72 h incubation
# Description: As for the cytotoxic concentration of 50% (CC50) determination, the Vero (ATCC CCL-81) cell line was cultured in Eagle’s Minimum Essential Medium (MEM) (Cultilab, Brazil). The medium was supplemented with 5% fetal bovine serum (FBS) (Cultilab, Brazil), in addition to 100 IU/mL penicillin (Cellofarm, Brazil), 100 μg/mL streptomycin (Merck, Germany), and 0.25 μg/mL amphotericin B (Cultilab, Brazil). Cells were seeded in 96-well microplates (4.0 × 10^4 cells per well) and incubated at 37 °C and 5% CO2 atmosphere. After 24 h of incubation, 200 μL of fresh medium containing a serial dilution of the compounds (100–1.56 μM) was added to the plates. Serial dilutions of DMSO were used as vehicle controls. After 72 h of incubation under the same conditions, 100 μL of 3-(4,5-dimethylthiazol-2-yl)–2,5-diphenyltetrazolium bromide (MTT) in MEM (0.5 mg/mL) was added to each well. After 3 h of incubation with MTT (ThermoFischer Scientific), the medium was removed, and 100 μL of DMSO was added to each well to solubilize the formazan crystals. After a brief incubation under shaking for 20 min, the absorbance at 570 nm of each well was read using a spectrophotometer (VersaMax, Molecular Devices). The percentages of inhibition of cell viability were calculated by using the vehicle control. The cytotoxic concentration of 50% (CC50) is defined as the lowest concentration of a given compound that can reduce the viability of cultured cells by 50%. Posteriorly, the selectivity index (SI), that is, the ratio between the CC50 and MIC values of each active compound, was calculated. All conditions were tested in triplicate and at least two independent assays. The overall procedures applied in this work are illustrated in Figure .
# [4] = test system: E. coli (ATCC 35218), TEM-1 β-lactamase producing strain; test: Broth microdilution (CLSI): screening at 100 μM and MIC, E. coli; type: cell-based; settings: for Percentage of growth inhibition E. coli (ATCC 35218): at 100 uM, Table S4
# Description: as §1
# [5] = test system: clinical strain of MRSA n° 6154; test: Broth microdilution (CLSI): screening at 100 μM and MIC, MRSA clinical strain 6154; type: cell-based, Staphylococcus aureus; settings: for Percentage of growth inhibition MRSA (6154): at 100 uM, Table S4
# Description: as §1
# MSSA and MRSA strains = test: Broth microdilution, results summed up over MSSA and MRSA strains; type: cell-based, Staphylococcus aureus; settings: tested compounds of Supporting Table S4, 100 μM
# Description: as §1
# [6] = broth microdilution, 24 h, 37 °C
SMILES,Percentage of growth inhibition MRSA (5749) [1] [%],Percentage of growth inhibition MRSA (ATCC 43300) (MRSA (ATCC n° 43300)) [%],Percentage of growth inhibition MSSA (ATCC 29123) [2] [%],Percentage of growth inhibition E. coli (ATCC 35218) [4] [%],Percentage of growth inhibition MRSA (6154) [5] [%],other results
"Cc1ccc(OCC(N)COc2ccc(C)cc2)cc1 [Compound 4, 1,3-bis(4-methylphenoxy)propano-2-aminium chloride]",,,,,,"MIC, MRSA (5749) [1, 6]: −; MIC (MRSA (ATCC n° 43300); Staphylococcus aureus, ATCC 43300 / MRSA, broth microdilution, 24 h, 37 °C): 100 µM; % of growth inhibition, MRSA (ATCC 43300) (MRSA (ATCC n° 43300); at the concentration given (MIC or 100 μM where MIC >100)): 90.38%; MIC ([2]; Staphylococcus aureus, ATCC 29123 / MSSA, broth microdilution, 24 h, 37 °C): 50 µM; % of growth inhibition, MSSA (ATCC 29123) ([2]; at the concentration (MIC)): 97.80%; CC50 at 72 h [3]: 19 ± 6.1 µM; inhibition at 100 µM ([4]; Escherichia coli, ATCC35218, at 100 μM, read-out: inhibition in the initial screening, E. coli): 85.5%; MIC ([4]; Escherichia coli, ATCC35218, broth microdilution, 24 h, 37 °C): 100 µM; % of growth inhibition, E. coli (ATCC 35218) ([4]; at the concentration (MIC)): 87.0%; MIC, MRSA (6154) [5, 6]: −"
O=C1C=C(OCc2cn(-c3ccccc3)nn2)C(=O)c2ccccc21 [S12],0,0,0,0,0,antibacterial activity (in words) (MSSA and MRSA strains): no antibacterial activity
CC1(C)OCC(CO)N1C(=O)OCc1ccccc1 (stereo not drawn) [S13],0,0,0,0,0,
O=C(C=Cc1ccccc1)NC(CO)COc1ccc([N+](=O)[O-])cc1 (stereo not drawn) [S14],0,0,0,0,0,
O=C(CCc1ccccc1)ON1C(=O)CCC1=O [S16],0,0,0,0,0,
OC(COc1cccc2ccccc12)COc1cccc2ccccc12 [S17],0,0,0,0,0,
N#Cc1ccccc1OCC(O)COc1ccccc1C#N [S18],0,0,0,0,0,
N#Cc1cccc(OCC(O)COc2cccc(C#N)c2)c1 [S19],0,0,0,0,0,
O=C1C(O)=C(Cc2cn(C3OC(CO)C(O)C(O)C3O)nn2)C(=O)c2ccccc21 (stereo not drawn) [S25],0,0,0,0,0,
O=C1C(O)=C(Cc2cn(C3OC(CO)C(O)C(O)C3O)nn2)C(=O)c2ccccc21 (stereo not drawn) [S26],0,0,0,0,0,
CC(=O)NC1C(O)C(O)C(CO)OC1n1cc(CC2=C(O)C(=O)c3ccccc3C2=O)nn1 (stereo not drawn) [S27],0,0,0,0,0,
CC(=O)OC1C(C)OC(n2cc(COC3=CC(=O)c4ccccc4C3=O)nn2)C(OC(C)=O)C1OC(C)=O (stereo not drawn) [S33],0,0,0,0,0,antibacterial activity (in words) (MSSA and MRSA strains): inactive
CC(C)=CCC1=C(NCC(=O)O)C(=O)c2ccccc2C1=O [S34],0,0,0,0,0,
C#CCOC1=C(CC=C(C)C)C(=O)c2ccccc2C1=O [S35],0,0,0,0,0,
O=C(NC(Cc1ccc(O)cc1)C(=O)O)OCc1ccccc1 (stereo not drawn) [S42],0,0,0,0,0,
NC(=O)CC(NC(=O)OCc1ccccc1)C(=O)O (stereo not drawn) [S43],0,0,0,0,0,
NCCNC(=O)c1cc2ccccc2[nH]1 [S45],0,0,0,0,0,
OCCNCc1cc2ccccc2[nH]1 [S46],0,0,0,0,0,
CCCNC(=O)c1cc2ccccc2[nH]1 [S47],0,0,0,0,0,
O=C(NCCO)c1cc2ccccc2[nH]1 [S48],0,0,0,0,0,
O=C(NCCCN1CCOCC1)c1cc2ccccc2[nH]1 [S49],0,0,0,0,0,
O=c1cc(-c2ccc(O)c(O)c2)oc2c(C3OC(CO)C(O)C(O)C3O)c(O)cc(O)c12 (stereo not drawn) [S54],0,0,0,0,0,
